From EP0409414B1, “Diaryl ether cycloalkanes” (IMPERIAL CHEMICAL INDUSTRIES PLC, priority 1989, dated 1991)

Target: T1, 5-LO (Homo sapiens, UniProt P09917)
T1 construct: incubating a test compound with heparinised human blood, prior to challenge with the calcium ionophore A23187; endogenous in cells; host or cells: heparinised human whole blood (leukocytes)
T1 sequence (P09917 1-674): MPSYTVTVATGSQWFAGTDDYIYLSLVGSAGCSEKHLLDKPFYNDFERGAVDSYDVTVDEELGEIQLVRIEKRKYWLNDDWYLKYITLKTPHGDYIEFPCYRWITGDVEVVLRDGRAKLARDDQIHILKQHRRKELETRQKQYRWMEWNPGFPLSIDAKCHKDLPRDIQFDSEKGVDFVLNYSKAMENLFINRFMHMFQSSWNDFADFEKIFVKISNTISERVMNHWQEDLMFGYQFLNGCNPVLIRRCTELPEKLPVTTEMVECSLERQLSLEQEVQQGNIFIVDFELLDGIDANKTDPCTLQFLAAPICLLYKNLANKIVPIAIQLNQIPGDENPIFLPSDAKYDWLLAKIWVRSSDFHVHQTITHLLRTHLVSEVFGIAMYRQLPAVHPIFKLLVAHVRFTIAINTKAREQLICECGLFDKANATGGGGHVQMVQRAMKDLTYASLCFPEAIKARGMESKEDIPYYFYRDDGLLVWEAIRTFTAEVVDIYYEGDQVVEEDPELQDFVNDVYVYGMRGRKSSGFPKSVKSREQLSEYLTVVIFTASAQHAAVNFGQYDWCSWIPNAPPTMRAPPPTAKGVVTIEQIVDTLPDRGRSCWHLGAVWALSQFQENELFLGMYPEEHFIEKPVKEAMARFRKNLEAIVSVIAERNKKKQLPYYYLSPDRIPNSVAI
Test: heparinised human blood challenged with calcium ionophore A23187, radioimmunoassay of LTB4 (test b)
Type: cell-based
Settings: individual compounds, read-out: IC50 against LTB4
Method: As stated previously, the compounds of the formula I are inhibitors of the enzyme 5-LO. […] This test provides a measure of the intrinsic inhibitory properties against soluble 5-LO in an extracellular environment. • b) An in vitro assay system involving incubating a test compound with heparinised human blood, prior to challenge with the calcium ionophore A23187 and then indirectly measuring the inhibitory effects on 5-LO by assaying the amount of LTB4 using the specific radioimmunoassay described by Carey and Forder (F. Carey and R.A. Forder, Brit. […] The effects of a test compound on the enzyme cyclooxygenase (which is involved in the alternative metabolic pathway for arachidonic acid and gives rise to prostaglandins, thromboxanes and related metabolites) may be measured at the same time using the specific radioimmunoassay for thromboxane B2(TxB2) described by Carey and Forder (see above). […] It permits the selectivity of the inhibitory effect on 5-LO or cyclooxygenase to be assessed. • c) An ex vivo assay system, which is a variation of test b) above, involving administration of a test compound (usually orally as the suspension produced when a solution of the test compound in dimethylsulphoxide is added to carboxymethylcellulose), blood collection, heparinisation, challenge with A23187 and radioimmunoassay of LTB4 and TxB2. […]

IC50	Compound
~200 nM	CO[C@H]1CCC[C@@]1(OC)c1cc(F)cc(Sc2ccc3ccccc3c2)c1 (racemic) [Example 1, (1RS,2SR)-1-[5-fluoro-3-(naphth-2-ylthio)phenyl]-1,2-dimethoxycyclopentane]
~200 nM	C=CCO[C@@]1(c2cc(F)cc(Sc3ccc4ccccc4c3)c2)CCC[C@@H]1OC (racemic) [Example 2, (1RS,2SR)-1-allyloxy-1-[5-fluoro-3-(naphth-2-ylthio)phenyl]-2-methoxycyclopentane]
